Literature values, collected in patent US6841573B2, “Use of arachidonic acid as a method of increasing skeletal muscle mass” (Molecular Nutrition, priority 2002, dated 2005).

Tests used:
[1] = serum from forearm and kidney of human volunteers after direct infusion into brachial or renal artery
[2] = 14C-labeled arachidonic acid, human skeletal muscle and kidney homogenates
[3] = after oral 200 mg and 1.5 g supplemented arachidonic acid per day, human, drawn blood
[4] = after administering the precursor
intact rabbit muscle = details: unstimulated intact rabbit muscle, in-vitro
cox-1 enzyme = biological target: T1, cox-1 enzyme (Homo sapiens, UniProt P23219); details: by inhibiting the normal post-exercise increase in PGF2alpha
T1 construct: host or cells: skeletal muscle in vivo (endogenous enzyme)
T1 sequence (P23219 24-599): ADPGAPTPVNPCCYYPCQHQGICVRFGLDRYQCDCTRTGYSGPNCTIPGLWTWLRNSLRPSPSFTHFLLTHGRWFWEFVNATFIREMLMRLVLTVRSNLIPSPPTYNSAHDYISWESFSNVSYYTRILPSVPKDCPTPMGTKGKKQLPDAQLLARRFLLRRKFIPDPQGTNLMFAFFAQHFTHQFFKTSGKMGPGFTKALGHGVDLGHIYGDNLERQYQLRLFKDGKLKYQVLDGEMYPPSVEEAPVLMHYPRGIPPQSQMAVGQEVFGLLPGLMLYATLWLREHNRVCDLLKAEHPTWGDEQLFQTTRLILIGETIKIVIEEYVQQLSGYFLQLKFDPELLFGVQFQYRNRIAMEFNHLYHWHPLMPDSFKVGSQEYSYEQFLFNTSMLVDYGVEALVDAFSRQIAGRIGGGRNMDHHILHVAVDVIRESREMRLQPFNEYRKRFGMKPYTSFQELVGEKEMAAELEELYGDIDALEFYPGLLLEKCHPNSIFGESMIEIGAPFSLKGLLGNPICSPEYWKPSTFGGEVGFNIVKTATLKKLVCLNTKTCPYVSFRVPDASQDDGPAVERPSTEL

Row | Compound | effect on rates of protein synthesis (intact rabbit muscle) | also measured
1 | CCCCC/C=C\C/C=C\C/C=C\C/C=C\CCCC(=O)O [arachidonic acid] | – | labeled metabolites found in serum [1]: PGD2, PGE2, PGF2 alpha, 6-keto-PGF1 alpha and 13,14-dihydro-15-keto-PGE2 (Me) were all found; prostaglandins produced during incubation [2]: PGD2, PGE2, PGF2 alpha and 6-keto-PGF1 alpha; in-vitro secretion of LTB4 and PGE2 [3]: measurably increase
2 | C[C@]12CCC(=O)C=C1CC[C@@H]1[C@@H]2CC[C@]2(C)C(=O)CC[C@@H]12 [androstenedione] | – | period of subsequent decline of active hormone (testosterone) concentration [4]: three to four; time to peak concentration of active hormone (testosterone) [4]: ≤ 90 min
3 | CCCCC[C@H](O)/C=C/[C@@H]1[C@@H](C/C=C\CCCC(=O)O)[C@@H](O)C[C@H]1O [prostaglandin F2 alpha, PGF2alpha] | increased rates of protein synthesis | –
4 | CCCCC/C=C\C\C=C/C=C/C=C/[C@@H](SC[C@H](N)C(=O)NCC(=O)O)[C@@H](O)CCCC(=O)O [leukotriene D4] | failed to do so | –
5 | CCCCC[C@H](O)/C=C/[C@H]1[C@H](O)CC(=O)[C@@H]1C/C=C\CCCC(=O)O [prostaglandin E2, PGE2] | failed to do so | –
6 | CCCCC/C=C\C\C=C/C=C/C=C/[C@@H](SC[C@H](NC(=O)CC[C@H](N)C(=O)O)C(=O)NCC(=O)O)[C@@H](O)CCCC(=O)O [leukotriene C4] | failed to do so | –
7 | CCCCC[C@H](O)/C=C/[C@H]1C(=O)C[C@H](O)[C@@H]1C/C=C\CCCC(=O)O [prostaglandin D2, PGD2] | failed to do so | –
8 | CCCCC[C@H](O)/C=C/[C@H]1C=CC(=O)[C@@H]1CCCCCCC(=O)O [prostaglandin A1] | increased rates of protein synthesis | –
9 | CC(=O)Nc1ccc(O)cc1 [acetaminophen] | – | effect on anabolic response of muscle to resistance exercise (cox-1 enzyme): profoundly diminish the anabolic response
